Experimental data taken from US8691800B2, “Quinoline derivatives as antibacterial agents” (Janssen Pharmaceutica N.V., priority 2005, dated 2014).
Values after ≈ are worked out from the molar mass of the structure shown.

Experiments:
[1] = tested on: Streptococcus pyogens (ATCC8668); test: Microtitre plate assay, IC90 for bacterial growth; type: cell-based; conditions: for IC90: Streptococcus, ATCC8668, 90% inhibitory concentration for bacterial growth, read-out: IC90 SPY 8668
Procedure: (§1) The bacteria used in this study were grown overnight in flasks containing 100 ml Mueller-Hinton Broth (Becton Dickinson—cat. no. 275730) in sterile de-ionized water, with shaking, at 37° C. Stocks (0.5 ml/tube) were stored at 70° C. until use. Bacteria titrations were performed in microtiter plates and colony forming units (CFUs) were determined. In general, an inoculum level of approximately 100 CFUs was used for susceptibility testing.
(§2) Anti bacterial Susceptibility Testing: IC90 Determination
(§3) Flat-bottom, sterile 96-well plastic microtiter plates were filled with 180 μl of sterile deionized water, supplemented with 0.25% BSA. Subsequently, stock solutions (7.8× final test concentration) of compounds were added in 45 μl volumes in column 2. Serial five-fold dilutions (45 μl in 180 μl) were made directly in the microtiter plates from column 2 to reach column 11. Untreated control samples with (column 1) and without (column 12) inoculum were included in each microtiter plate. Depending on the bacteria type, approximately 10 to 60 CFU per well of bacteria inoculum (100 TCID50), in a volume of 100 μl in 2.8× Mueller-Hinton broth medium, was added to the rows A to H, except column 12. The same volume of broth medium without inoculum was added to column 12 in row A to H. The cultures were incubated at 37° C. for 24 hours under a normal atmosphere (incubator with open air valve and continuous ventilation). At the end of incubation, one day after inoculation, the bacterial growth was quantitated fluorometrically. Therefore resazurin (0.6 mg/ml) was added in a volume of 20 μl to all wells 3 hours after inoculation, and the plates were re-incubated overnight. A change in colour from blue to pink indicated the growth of bacteria. The fluorescence was read in a computer-controlled fluorometer (Cytofluor Biosearch) at an excitation wavelength of 530 nm and an emission wavelength of 590 nm. The % growth inhibition achieved by the compounds was calculated according to standard methods. The IC90 (expressed in μg/ml) was defined as the 90% inhibitory concentration for bacterial growth.

[2] = tested on: Enterococcus faecalis (ATCC14506); test: Microtitre plate assay, IC90 for bacterial growth; type: cell-based; conditions: 90% inhibitory concentration for bacterial growth; for IC90: read-out: IC90 EFA 14506
Procedure: as §1, §2, §3

[3] = tested on: Enterococcus faecalis (ATCC29212); test: Microtitre plate assay, IC90 for bacterial growth; type: cell-based; conditions: for IC90: Enterococcus faecalis, ATCC29212, 90% inhibitory concentration for bacterial growth, read-out: IC90 EFA 29212
Procedure: as §1, §2, §3

[4] = tested on: Pseudomonas aeruginosa (ATCC27853); test: Microtitre plate assay, IC90 for bacterial growth; type: cell-based; conditions: for IC90: Pseudomonas aeruginosa, ATCC27853, 90% inhibitory concentration for bacterial growth, read-out: IC90 PAE 27853
Procedure: as §1, §2, §3

[5] = tested on: Staphylococcus aureus (ATCC29213); test: Microtitre plate assay, IC90 for bacterial growth; type: cell-based; conditions: 90% inhibitory concentration for bacterial growth, 24 hours at 37° C., resazurin; for IC90: Staphylococcus aureus, ATCC29213, 24 h, read-out: IC90 STA 29213
Procedure: as §1, §2, §3

[6] = tested on: Streptococcus pneumoniae (ATCC6305); test: Microtitre plate assay, IC90 for bacterial growth; type: cell-based; conditions: for IC90: Streptococcus pneumoniae, ATCC6305, 90% inhibitory concentration for bacterial growth, read-out: IC90 SPN 6305; for IC90 SPN 6305: 90% inhibitory concentration for bacterial growth
Procedure: as §1, §2, §3

[7] = tested on: Staphylococcus aureus (ATCC25923); test: Microtitre plate assay, IC90 for bacterial growth; type: cell-based; conditions: for IC90: Staphylococcus aureus, ATCC25923, 90% inhibitory concentration for bacterial growth, read-out: IC90 STA 25923
Procedure: as §1, §2, §3

[8] = tested on: methicilline resistant Staphylococcus aureus (MRSA) (a clinical isolate from the University of Antwerp); test: Microtitre plate assay, IC90 for bacterial growth; type: cell-based; conditions: 90% inhibitory concentration for bacterial growth; for IC90: Staphylococcus aureus, MRSA, read-out: IC90 STA RMETHIC
Procedure: as §1, §2, §3

[9] = tested on: Bacillus subtilis (ATCC43639); test: Microtitre plate assay, IC90 for bacterial growth; type: cell-based; conditions: for IC90: Bacillus subtilis, ATCC43639, 90% inhibitory concentration for bacterial growth, read-out: IC90 BSU 43639; for IC90 BSU 43639: 90% inhibitory concentration for bacterial growth
Procedure: as §1, §2, §3

[10] = tested on: Listeria monocytogenes (ATCC49594); test: Microtitre plate assay, IC90 for bacterial growth; type: cell-based; conditions: for IC90: Listeria monocytogenes, ATCC49594, 90% inhibitory concentration for bacterial growth, read-out: IC90 LMO 49594
Procedure: as §1, §2, §3

[11] = tested on: Escherichia coli (ATCC25922); test: Microtitre plate assay, IC90 for bacterial growth; type: cell-based; conditions: 90% inhibitory concentration for bacterial growth, read-out: IC90 ECO 25922
Procedure: as §1, §2, §3

[12] = tested on: Streptococcus mutans (ATCC33402); test: Microtitre plate assay, IC90 for bacterial growth; type: cell-based
Procedure: as §1, §2, §3

[13] = tested on: Escherichia coli (ATCC35218); test: Microtitre plate assay, IC90 for bacterial growth; type: cell-based; conditions: 90% inhibitory concentration for bacterial growth
Procedure: as §1, §2, §3

[14] = tested on: Staphylococcus aureus (ATCC43300); test: Microtitre plate assay, IC90 for bacterial growth; type: cell-based; conditions: 90% inhibitory concentration for bacterial growth
Procedure: as §1, §2, §3

[15] = tested on: Escherichia coli (ATCC1403); test: Microtitre plate assay, IC90 for bacterial growth; type: cell-based
Procedure: as §1, §2, §3

[16] = 90% inhibitory concentration for bacterial growth

Structure (SMILES)	melting point [°C]	IC90 [1] [µg/mL]	IC90 [2] [µg/mL]	IC90 [3] [µg/mL]	IC90 [4] [µg/mL]	IC90 [5] [µg/mL]	IC90 [6] [µg/mL]	IC90 [7] [µg/mL]	IC90 [8] [µg/mL]	IC90 [9] [µg/mL]	IC90 [10] [µg/mL]	IC90 SPN 6305 [6] [µg/mL]	IC90 STA 43300 [14] [µg/mL]	IC90 BSU 43639 [9] [µg/mL]	other results
COc1nc2ccc(Br)cc2cc1C(c1ccccc1)C1(C2=CC=CCC2)CCN(C)CO1 (single isomer, unassigned) [Compound 8]	168	12.7 (≈ 25.1 µM)	40 (≈ 79.1 µM)	12.7 (≈ 25.1 µM)	10 (≈ 19.8 µM)	12.7 (≈ 25.1 µM)	12.7 (≈ 25.1 µM)	12.7 (≈ 25.1 µM)	12.7 (≈ 25.1 µM)	12.7 (≈ 25.1 µM)	12.7 (≈ 25.1 µM)				
COc1nc2ccc(Cl)cc2cc1C(c1ccccc1)C1(c2cccc3ccccc23)CCN(C)CO1 (single isomer, unassigned) [Compound 14]	189	12.8 (≈ 25.1 µM)	12.8 (≈ 25.1 µM)	12.8 (≈ 25.1 µM)	12.8 (≈ 25.1 µM)	12.8 (≈ 25.1 µM)	12.8 (≈ 25.1 µM)	12.8 (≈ 25.1 µM)	12.8 (≈ 25.1 µM)	12.8 (≈ 25.1 µM)	12.8 (≈ 25.1 µM)				
COc1nc2ccc(Cl)cc2cc1C(c1ccccc1)C1(c2cccc3ccccc23)CC[N+](C)(C)CO1.[I-] (single isomer, unassigned) [Compound 15]	211											2.3	9.3	2.1	IC90 SPY 8668 [1, 16]: 1.9 µg/mL; IC90 [11]: 10.5 µg/mL; IC90 SMU 33402 [12, 16]: 1.9 µg/mL; IC90 EFA 14506 [2]: 2.1 µg/mL; IC90 EFA 29212 [3, 16]: 2.1 µg/mL; IC90 PAE 27853 [4, 16]: 9.3 µg/mL; IC90 STA 29213 [5]: 1.86 µg/mL; IC90 STA 25923 [7, 16]: 2.1 µg/mL; IC90 ECO 35218 [13]: 41.6 µg/mL; IC90 STA RMETHIC [8]: 1.9 µg/mL; IC90 ECO 1403 [15, 16]: 10.5 µg/mL; IC90 LMO 49594 [10, 16]: 2.1 µg/mL
COc1nc2ccc(Cl)cc2cc1C(c1ccccc1)C1(c2cccc3ccccc23)CC[N+](C)(C)CO1.[I-] (single isomer, unassigned) [Compound 16]	195	1.9	2.1	2.6	10.5	1.9		1.9	2.1		1.7	5.2	41.6	10.5	IC90 ([12]; Streptococcus mutans, ATCC33402, 90% inhibitory concentration for bacterial growth, read-out: IC90 SMU 33402): 2.1 µg/mL; IC90 ([13]; read-out: IC90 ECO 35218): 41.6 µg/mL; IC90 ([15]; Escherichia coli, ATCC1403, 90% inhibitory concentration for bacterial growth, read-out: IC90 ECO 1403): 13.2 µg/mL
